Data taken from PMC3187749, “Discovery of Diverse Small Molecule Chemotypes with Cell-Based PKD1 Inhibitory Activity” (PLoS ONE, 2011).
Read-outs that look alike come from different tables or passages of the source.

Tests used:
recombinant human PKD1 [1] = molecular target: T1, recombinant human PKD1 (Homo sapiens, UniProt Q15139); conditions: cited from earlier work
T1 construct: His; purchased Millipore (Billerica, MA)
T1 sequence (Q15139 1-912): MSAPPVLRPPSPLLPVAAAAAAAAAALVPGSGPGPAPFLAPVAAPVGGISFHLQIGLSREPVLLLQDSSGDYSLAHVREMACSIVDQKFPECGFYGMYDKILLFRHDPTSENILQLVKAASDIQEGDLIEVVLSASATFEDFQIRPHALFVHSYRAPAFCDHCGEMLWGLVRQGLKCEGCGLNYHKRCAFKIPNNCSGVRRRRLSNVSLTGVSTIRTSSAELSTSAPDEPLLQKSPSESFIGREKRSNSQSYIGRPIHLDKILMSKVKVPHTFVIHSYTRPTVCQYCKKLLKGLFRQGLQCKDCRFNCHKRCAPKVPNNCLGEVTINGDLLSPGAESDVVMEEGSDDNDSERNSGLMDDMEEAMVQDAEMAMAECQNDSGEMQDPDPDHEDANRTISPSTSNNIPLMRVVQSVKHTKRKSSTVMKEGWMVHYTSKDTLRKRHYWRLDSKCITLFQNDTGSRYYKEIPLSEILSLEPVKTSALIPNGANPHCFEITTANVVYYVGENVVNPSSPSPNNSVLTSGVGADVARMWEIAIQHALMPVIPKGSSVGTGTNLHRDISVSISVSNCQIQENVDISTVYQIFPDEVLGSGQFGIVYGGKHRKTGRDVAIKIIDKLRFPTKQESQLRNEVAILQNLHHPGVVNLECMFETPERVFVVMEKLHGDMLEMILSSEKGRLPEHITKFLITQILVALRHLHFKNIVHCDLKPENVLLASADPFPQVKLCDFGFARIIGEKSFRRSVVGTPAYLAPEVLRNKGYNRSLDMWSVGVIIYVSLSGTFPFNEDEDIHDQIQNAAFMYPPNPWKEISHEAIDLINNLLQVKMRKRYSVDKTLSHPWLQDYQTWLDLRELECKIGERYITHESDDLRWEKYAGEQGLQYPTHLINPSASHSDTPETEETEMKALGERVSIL

recombinant human PKD1 [2] = molecular target: T1, recombinant human PKD1; assay: In vitro radiometric PKD1 kinase assay; type: biochemical
Protocol: Kinase reactions were initiated with the addition of ATP (50 µM ATP, 1.0 µCi γ-^33P-ATP; Perkin Elmer, Boston, MA) and incubated for 20 min at 30°C. Twenty-five µL of the reaction was spotted onto Whatman P81 filter paper (Whatman Inc., Clifton, NJ). Filter papers were then washed three times in 0.5% phosphoric acid, air-dried, and counted using an LS6500 multi-purpose scintillation counter (Beckman Coulter, Fullerton, CA). IC50 determinations were performed using GraphPad Prism software 5.0. Radiometric PKD2 and PKD3 in vitro kinase assays were performed as previously described.

[3] = molecular target: T2, endogenous PKD1 (Ser916 phosphorylation) in LNCaP prostate cancer cells (Homo sapiens, UniProt Q15139); assay: Western blot of PMA-induced phospho-Ser916-PKD1 in LNCaP cells; type: cell-based; conditions: LNCaP cells; for inhibition at 50 µM: read-out: Inhibition of phosphorylation of Ser916-PKD1; for Concentration dependence of inhibition of PMA-induced endogenous PKD1 activity: Western blot
T2 construct: phosphorylation of endogenously expressed PKD1 Ser^916; endogenous in cells; host or cells: LNCaP prostate cancer cells
T2 sequence (Q15139 1-912): T1 sequence (Q15139 1-912)
Protocol: Briefly, prostate cancer cells (LNCaP) were exposed to test compounds. Cells were lysed in buffer (200 mM Tris-HCl, pH 7.4, 100 µM 4-(2-aminoethyl) benzenesulfonyl fluoride, 1 mM EGTA, and 1% Triton X-100) and cell lysates were subjected to SDS-PAGE then electrotransferred to nitrocellulose membranes. Membranes were blocked with 5% nonfat milk in Tris-buffered saline. Membranes were probed with a primary antibody then followed by a secondary anti-mouse or anti-rabbit secondary antibody conjugated to horseradish peroxidase (1∶1000, Bio-Rad). Bands were visualized by the enhanced chemiluminescence Western blotting detection system (Amersham Biosciences). The primary antibodies included p-S916-PKD1 antibody (Millipore) and GAPDH (Enzo Life Sciences, Plymouth Meeting, PA).
[…] Whole cell lysates were immunoblotted for phosphorylated Ser^916-PKD1 with GAPDH serving as a loading control.

recombinant human PKD1 [4] = molecular target: T1, recombinant human PKD1; assay: ATP competition studies (radiometric PKD1 assay, Michaelis-Menten/Lineweaver-Burk); type: biochemical; conditions: PKD1, ATP 12.5–1000 µM
Protocol: For ATP competition studies, recombinant human PKD1 (1 ng/µL) and Syntide-2 substrate peptide (200 ng/µl) in kinase buffer were incubated with a concentration range of test compound. Kinase reactions were initiated with a concentration range of cold ATP (12.5–1000 µM) supplemented with 1.0 µCi γ-^33P-ATP (Perkin Elmer) and processed as described above. Enzyme inhibition was analyzed and visualized using the Michaelis-Menten and Lineweaver-Burk functions of GraphPad Prism 5.0.

[5] = tested on: T3, recombinant human protein kinase D1 (PKD1); assay: IMAP-based PKD1 FP high throughput screening assay; type: biochemical; conditions: LOPAC screen, 10 µM, duplicate
T3 construct: His; purchased Millipore (Billerica, MA)
Protocol: An HTS IMAP-based PKD1 FP assay was developed and used to screen the PMLSC library to identify primary active compounds as previously described, [19]. In brief, the basis for the in vitro homogeneous IMAP PKD1 FP assay is the interaction of nanoparticles with covalent phosphorylated moieties generated when active PKD1 enzyme phosphorylates small, fluorescently labeled substrate peptides. The PKD1 kinase reactions were assembled stepwise by the addition of 3× substrate/ATP (300 nM/60 µM), compound and PKD1 enzyme (0.18 units/mL). Positive (MAX) and negative (MIN) control kinase reactions contained DMSO (1%) and Gö6976 (1 µM) or H-89 (100 µM) in 1% DMSO (final concentrations), respectively. All assay plates were setup in a standard 384-well configuration as previously described and all reagents were prepared in kinase reaction buffer. Kinase reactions were incubated for 90 min at room temperature and then were stopped with the addition of 18 µL of IMAP binding reagents (1∶400) in 1× binding buffer A (proprietary composition, Molecular Devices). These nanoparticles associate with substrate peptide phospho groups creating a larger phosphosubstrate–nanoparticle complex. The phosphosubstrate–nanoparticle binding can be quantified and is expressed as millipolarization (mP) units. […] Assay plates were centrifuged at 50 g for 1 min, incubated at room temperature for 2 hr and FP data were collected on a Molecular Devices SpectraMax M5 (excitation A485/emission A525). This assay was also used in secondary concentration response studies to initially determine IC50 concentrations of compounds. IC50 determinations were performed using GraphPad Prism software 5.0 (La Jolla, CA).
A PKD1 IMAP FP assay was developed and optimized to identify small molecule inhibitors of PKD1 kinase activity. Using this assay system, we screened the LOPAC and PMLSC compound sets (196,425 total compounds) for novel PKD inhibitory chemotypes. […] For the LOPAC screen each compound was evaluated in duplicate at a single concentration (10 µM). […]

AKT = assay: IMAP-based AKT counter screen; type: biochemical; conditions: concentrations up to 50 µM
Text: (§1) It was also gratifying that, in general, our novel cell active PKD1 inhibitors appeared to be less promiscuous than PKD1 inhibitors having minimal to no cellular PKD1 inhibitory activity (Table 1). For example, CIDs 755673 and 1893668 display additional confirmed activity in six and seven, respectively, PubChem bioassays while CID 2011756 has confirmed activity in only one additional PubChem bioassay. […] In contrast, the remaining chemotypes registered as confirmed actives in 2–43 additional bioassays (Table 1). Additional chemical similarity searching, focusing on our four novel cell-active PKD1 inhibitory chemotypes, using MetaDrug also supports a comparative lack of promiscuity of these compounds.

PLK1 = assay: IMAP-based PLK1 counter screen; type: biochemical; conditions: concentrations up to 50 µM
Text: as §1

CDK7 = assay: IMAP-based CDK7 counter screen; type: biochemical; conditions: concentrations up to 50 µM
Text: as §1

[6] = radiometric PKD1 kinase assay, mean ± range or SD of 2–4 independent experiments, read-out: In vitro PKD1 IC50
[7] = 50 µM compound 45 min, then PMA 10 nM 20 min

Compound	IC50 (recombinant human PKD1 [2]; [6]) [µM]	Inhibition of phosphorylation of Ser916-PKD1 (in words) [3, 7]	Mechanism of Action (with respect to ATP) (recombinant human PKD1 [4])	other results
NC(=O)c1cc(-c2ccnc(NC3CCCCC3)c2)nc(N2CCNCC2)c1 [BKPDi]	–	–	–	Mechanism of Action (with respect to ATP) (recombinant human PKD1 [1]; known mechanism of action of the PKD inhibitor BKPDi, listed as BPKDi): ATP competitive
NC(N)=NC(=O)c1nc(Cl)c(N)nc1N [CID 16230, amiloride chloride, reference compound]	2.1 ± 0.15	little or no inhibition	–	inhibition at 50 µM [3, 7]: < 50%
CC1(C)Oc2ccc3ccc(=O)oc3c2-c2cn[nH]c21 [CID 646236]	1.1 ± 0.1	–	ATP competitive	–
O=C1c2ccccc2-c2onc3ccc(NCCCn4ccnc4)c1c23 [CID 663844]	4.8 ± 0.6	little or no inhibition	–	–
O=C1NCCCc2c1oc1ccc(O)cc21 [CID 755673]	–	confirmed as a cell active PKD1 inhibitor	–	Concentration dependence of inhibition of PMA-induced endogenous PKD1 activity [3]: concentration-dependent inhibition; Mechanism of Action (with respect to ATP) (recombinant human PKD1 [1]; previously determined): Non-ATP competitive
CCN1/C(=C/C(C)=O)Sc2ccc(OC)cc21 [CID 1893668, (1Z)-1-(3-ethyl-5-methoxy-1,3-benzothiazol-2-ylidene)propan-2-one, reference compound]	1.7 ± 0.3	–	–	inhibition at 50 µM [3, 7]: > 50%; EC50 ([3]; PMA stimulation, n = 3, read-out: Cellular EC50 (phospho-Ser916-PKD1)): 52 ± 14 µM; Concentration dependence of inhibition of PMA-induced endogenous PKD1 activity [3]: concentration-dependent inhibition
CCC1=NNc2cccc3c(OC)ccc1c23 [CID 2876479]	2.2 ± 1.8	some cellular inhibition	ATP competitive	–
CC1Cc2ccccc2N1c1ncnc(N)c1[N+](=O)[O-] (stereo not shown) [CID 2958734]	6.1 ± 0.2	little or no inhibition	ATP competitive	–
Clc1cncc(Cl)c1NNc1ccncc1 [CID 4438738]	3.3 ± 0.1	–	ATP competitive	–
Nc1nc2ccc([N+](=O)[O-])c(N)c2s1 [CID 5086667]	–	some cellular inhibition	ATP-competitive inhibitor	Mechanism of Action (with respect to ATP) (recombinant human PKD1 [4]; listed as 5086667): ATP competitive
NC(=O)c1cn([C@@H]2O[C@H](CO)[C@@H](O)[C@H]2O)c2ncnc(N)c12 [CID 9549170, sangivamycin, reference compound]	–	–	ATP competitive	IC50 (recombinant human PKD1 [2]): 0.4 ± 0.3 µM
CC1CNCCN1S(=O)(=O)c1cccc2cnccc12 (stereo not shown) [H7]	–	–	–	Inhibition of control signal (primary active) [5]: ≥ 50%
CNCCNS(=O)(=O)c1cccc2cnccc12 [H8]	–	–	–	Inhibition of control signal (primary active) [5]: ≥ 50%
O=S(=O)(NCCNC/C=C/c1ccc(Br)cc1)c1cccc2cnccc12 [H89]	–	–	–	Inhibition of control signal (primary active) [5]: ≥ 50%
(6Z)-6-[4-(3-aminopropylamino)-6-methyl-1H-pyrimidin-2-ylidene]cyclohexa-2,4-dien-1-one [CID 5389142]	–	–	ATP competitive	AKT kinase inhibition (AKT): no kinase inhibition; Inhibition of phosphorylation of Ser916-PKD1 [3, 7]: greater than 50%; Concentration dependence of inhibition of PMA-induced endogenous PKD1 activity [3]: concentration-dependent inhibition; PLK1 kinase inhibition (PLK1): no kinase inhibition; CDK7 kinase inhibition (CDK7): no kinase inhibition
